# Results published in US20260250320A1, “LIPIDATED PEPTIDE INHIBITORS OF INTERLEUKIN-23 RECEPTOR” (Janssen Pharmaceutica NV, priority 2023, published 2026).
# *1 amine or outer side, *2 acyl side, *3 side chain or, on linkers, in order; H or OH if unused. Where a SMILES comes first, the peptide text is derived from it. Bridges are numbered along the chain shown (N, C = ends). Side-chain parts run from the residue outwards. [ ]: non-standard residue; d: D form. The star is where a group is joined. X29 = C[C@H](CCCCNC(=O)COCCOCCNC(=O)COCCOCCNC(=O)CC[C@H](NC(=O)CCCCCCCCCCCCCCCCC(=O)O)C(=O)O)C(=O)C[C@H](C(=O)[*:1])C(C)(C)S[*:2]; Me3N+(CH2)2O(CH2)2O(CH2)2CO = C[N+](C)(C)CCOCCOCCC(=O)*; CH2CH2OCH2CH2OCH2CH2NMe3+ = C[N+](C)(C)CCOCCOCC*; Trp(7-Me) = Cc1cccc2c(C[C@H](N)C(=O)O)c[nH]c12; C18 diacid = O=C(O)CCCCCCCCCCCCCCCCC(=O)*; γGlu = O=C(O)[C@H](CCC(=O)[*:2])N[*:1]; 2Nal = N[C@@H](Cc1ccc2ccccc2c1)C(=O)O; 3Pal = N[C@@H](Cc1cccnc1)C(=O)O; Lys(Me) = CNCCCC[C@H](N)C(=O)O; Pen = CC(C)(S)[C@H](N)C(=O)O; Thp = NC1(C(=O)O)CCOCC1; X1 = C[N+](C)(C)CCCCC*; AEEA = NCCOCCOCC(=O)O; Sar = CNCC(=O)O
# Key:
# [1] = test system: IL-23-stimulated phosphorylated STAT3 in peripheral blood mononuclear cells (PBMCs); test: PBMC pSTAT3 Assay; assay type: cell-based; conditions: PBMCs from healthy donors; 30 min preincubation with peptide; IL-23 5 ng/mL for 30 min; phospho-STAT3 by MSD
# Procedure, shortened: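 Healthy-donor PBMCs expanded 4 days on anti-CD3 with 100 ng/mL IL-1β, starved ~4 h in RPMI-0.1% BSA, preincubated 30 min with peptide, then stimulated 30 min at 37 °C with 5 ng/mL IL-23. Lysate pSTAT3 measured by MSD phospho-STAT panel; IC50 derived.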
# [2] = target: T1, IL-23R (Homo sapiens, UniProt Q5VWK5); test: IL23R Reporter Assay; assay type: cell-based; conditions: HEK293 cells containing IL-23R, IL-12Rβ1 and STAT-inducible firefly luciferase reporter; 10 ng/mL IL-23 (EC90); 5 h
# T1 construct: HEK293 cells containing IL-23R, IL-12Rβ1 and a firefly luciferase reporter gene driven by a STAT-inducible promoter (Promega); host or cells: HEK293
# T1 sequence (Q5VWK5 24-629): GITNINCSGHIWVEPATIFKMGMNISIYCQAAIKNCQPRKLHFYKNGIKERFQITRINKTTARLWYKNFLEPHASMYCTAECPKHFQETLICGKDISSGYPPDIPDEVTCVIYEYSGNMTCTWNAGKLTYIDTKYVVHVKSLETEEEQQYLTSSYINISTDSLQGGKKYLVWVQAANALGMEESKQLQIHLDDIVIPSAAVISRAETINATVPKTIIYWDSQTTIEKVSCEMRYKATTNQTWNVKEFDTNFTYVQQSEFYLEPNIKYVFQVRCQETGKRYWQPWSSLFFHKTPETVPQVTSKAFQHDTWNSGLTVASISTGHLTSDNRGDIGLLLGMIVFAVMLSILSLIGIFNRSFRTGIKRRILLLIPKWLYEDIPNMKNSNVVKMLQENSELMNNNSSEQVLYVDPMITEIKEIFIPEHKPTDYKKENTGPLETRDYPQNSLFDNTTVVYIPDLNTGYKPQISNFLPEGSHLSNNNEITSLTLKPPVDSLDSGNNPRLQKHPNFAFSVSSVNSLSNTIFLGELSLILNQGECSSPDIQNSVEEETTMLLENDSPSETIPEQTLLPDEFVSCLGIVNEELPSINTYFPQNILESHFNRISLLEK
# Procedure, shortened: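 HEK293 cells carrying IL-23R, IL-12Rβ1 and a STAT-driven firefly luciferase reporter (4000 cells/well) received compound, then 10 ng/mL IL-23 solution (EC90), and were incubated for 5 h at 37° C. BioGlo luminescence was normalised to IL-23 alone (0%) and 30 μM control inhibitor (100%). IC50 came from a 4-parameter Hill fit.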
IC50 [2] [nM],SMILES,IC50 [1] [nM]
50 to 500,"CC(=O)N(C)CCCC[C@@H]1NC(=O)[C@H](Cc2c[nH]c3c(C)cccc23)NC(=O)[C@H]([C@@H](C)O)NC(=O)[C@H](CC(=O)N(C)C)NC(=O)[C@@H](NC(=O)CCOCCOCC[N+](C)(C)C)C(C)(C)SSC(C)(C)[C@@H](C(=O)N[C@@H](Cc2ccc(OCCOCCOCC[N+](C)(C)C)cc2)C(=O)N[C@@H](Cc2ccc3ccccc3c2)C(=O)NC2(C(=O)N[C@@H](CCCCNC(=O)COCCOCCNC(=O)COCCOCCNC(=O)CC[C@H](NC(=O)CCCCCCCCCCCCCCCCC(=O)O)C(=O)O)C(=O)N[C@@H](CC(N)=O)C(=O)N[C@@H](Cc3cccnc3)C(=O)N(C)CC(=O)N(C)C)CCOCC2)NC1=O [compound 156, cPEG3aCO-Pen(3)-N(N(Me)2)-T-7MeW-K(NMeAc)-Pen(3)-APEG3F-2Nal-THP-K(PEG2PEG2gEC18OH)-N-3Pya-Sar-CON(Me)2] ({Me3N+(CH2)2O(CH2)2O(CH2)2CO}-[Pen]D(NMe2)T[Trp(7-Me)][Lys(Me)](Ac)[Pen]Y(CH2CH2OCH2CH2OCH2CH2NMe3+)[2Nal][Thp]K([AEEA-AEEA-γGlu-C18 diacid])N[3Pal][Sar]-NMe2; disulfide 1-6)",< 0.5
50 to 500,"CC(=O)N(C)CCCC[C@H](NC(=O)CNC(=O)[C@H](Cc1ccc2ccccc2c1)NC(=O)[C@H](Cc1ccc(OCCCCC[N+](C)(C)C)cc1)NC(=O)[C@H]1NC(=O)[C@H](CCCCNC(=O)COCCOCCNC(=O)COCCOCCNC(=O)CC[C@H](NC(=O)CCCCCCCCCCCCCCCCC(=O)O)C(=O)O)NC(=O)[C@H](Cc2c[nH]c3c(C)cccc23)NC(=O)[C@H]([C@@H](C)O)NC(=O)[C@H](CC(=O)N(C)C)NC(=O)[C@@H](NC(=O)CCOCCOCC[N+](C)(C)C)C(C)(C)SSC1(C)C)C(=O)N[C@@H](CC(N)=O)C(=O)N[C@@H](Cc1cccnc1)C(=O)N(C)CC(=O)N(C)C [compound 157, cPEG3aCO-Pen(3)-N(N(Me)2)-T-7MeW-K(PEG2PEG2gEC18OH)-Pen(3)-APEG3F-2Nal-THP-K(NMeAc)-N-3Pya-Sar-CON(Me)2] ({Me3N+(CH2)2O(CH2)2O(CH2)2CO}-[Pen]D(NMe2)T[Trp(7-Me)]K([AEEA-AEEA-γGlu-C18 diacid])[Pen]Y(X1)[2Nal]G[Lys(Me)](Ac)N[3Pal][Sar]-NMe2; disulfide 1-6)",0.5 to 5
50 to 500,"C=C(O)CCCCCCCCCCCCCCCCC(=O)N[C@@H](CCC(=O)NCCOCCOCC(=O)NCCCCCOCC(=O)NCCCC[C@@H]1NC(=O)[C@@H](NC(=O)CCOCCOCC[N+](C)(C)C)CCCC[C@@H](C(=O)N[C@@H](Cc2ccc(OCCOCCOCC[N+](C)(C)C)cc2)C(=O)N[C@@H](Cc2ccc3ccccc3c2)C(=O)NC2(C(=O)N[C@@H](CCCCN(C)C(C)=O)C(=O)N[C@@H](CC(N)=O)C(=O)N[C@@H](Cc3cccnc3)C(=O)N(C)CC(=O)N(C)C)CCCCC2)NC(=O)[C@H](CCCCN(C)C(C)=O)NC(=O)[C@H](Cc2c[nH]c3c(C)cccc23)NC(=O)[C@H]([C@@H](C)O)NC1=O)C(=O)O [compound 158, cPEG3aCO-Pen(3)-K(PEG2PEG2gEC18OH)-T-7MeW-K(NMeAc)-Pen(3)-APEG3F-2Nal-THP-K(NMeAc)-N-3Pya-Sar-CON(Me)2]",0.5 to 5
< 50,"CC(=O)N(C)CCCC[C@@H]1NC(=O)[C@H](Cc2c[nH]c3c(C)cccc23)NC(=O)[C@H]([C@@H](C)O)NC(=O)[C@H](CC(=O)N(C)C)NC(=O)[C@@H](CC(=O)[C@H](C)CCCCNC(=O)COCCOCCNC(=O)COCCOCCNC(=O)CC[C@H](NC(=O)CCCCCCCCCCCCCCCCC(=O)O)C(=O)O)C(C)(C)SSC(C)(C)[C@@H](C(=O)N[C@@H](Cc2ccc(OCCOCCOCC[N+](C)(C)C)cc2)C(=O)N[C@@H](Cc2ccc3ccccc3c2)C(=O)NC2(C(=O)N[C@@H](CCCCN(C)C(C)=O)C(=O)N[C@@H](CC(N)=O)C(=O)N[C@@H](Cc3cccnc3)C(=O)N(C)CC(=O)N(C)C)CCOCC2)NC1=O [compound 159, cPEG3aCO-k(PEG2PEG2gEC18OH)-Pen(3)-N(N(Me)2)-T-7MeW-K(NMeAc)-Pen(3)-APEG3F-2Nal-THP-K(NMeAc)-N-3Pya-Sar-CON(Me)2] (D(NMe2)T[Trp(7-Me)][Lys(Me)](Ac)[Pen]Y(CH2CH2OCH2CH2OCH2CH2NMe3+)[2Nal][Thp][Lys(Me)](Ac)N[3Pal][Sar]-NMe2; linker N-5 via X29)",< 0.5
50 to 500,"CC(=O)NCCCC[C@@H]1NC(=O)[C@H](Cc2c[nH]c3c(C)cccc23)NC(=O)[C@H]([C@@H](C)O)NC(=O)[C@H](CC(N)=O)NC(=O)[C@@H](NC(C)=O)C(C)(C)SSC(C)(C)[C@@H](C(=O)N[C@@H](Cc2ccc(OCCN)cc2)C(=O)N[C@@H](Cc2ccc3ccccc3c2)C(=O)NC2(C(=O)N[C@@H](CCC(=O)O)C(=O)N[C@@H](CC(N)=O)C(=O)N[C@@H](Cc3cccnc3)C(=O)N(C)CC(=O)N[C@@H](CCCCNC(=O)COCCOCCNC(=O)COCCOCCNC(=O)CC[C@H](NC(=O)CCCCCCCCCCCCCCCCC(=O)O)C(=O)O)C(N)=O)CCOCC2)NC1=O [compound 160, cPEG3aCO-r-Pen(3)-N-T-7MeW-K(Ac)-Pen(3)-AEF-2Nal-THP-E-N-3Pya-Sar-K(PEG2PEG2gEC18OH)-CONH2]",< 0.5
